Assay results as given in patent US8962003B2, “Insect behaviour modifying compounds” (The New Zealand Institute for Plant and Food Research …, priority 2003, dated 2015).

Key:
[1] = tested on: Frankliniella occidentalis; experiment: Y-tube olfactometer bioassay; type: in vivo; conditions: female Frankliniella occidentalis; for MAC (%) = Minimum Active Concentration to elicit a response from thrips (P < 0.05): 1 µl undiluted or diluted in hexane; for % Response: percentage of thrips to walk up odour-laden arm: same cell prints a '(t value)' in brackets
Protocol: The thrips behaviour-modifying activity of a compound may be evaluated in a glass Y-tube olfactometer following the method described by de Kogel et al. (de Kogel, W. J., Koschier, E. H. and Visser, J. H. Proc. Exper. & Appl. Entomol., N. E. V. Amsterdam, (1999) 10, 131-135.) and Koschier et al. (Koschier, E. H., De Kogel, W. J. and Visser, J. H. (2000) Jounrnal of Chemical Ecology, 26, 2643-2655).
The olfactory behaviour of thrips toward volatile compounds was evaluated in a glass Y-tube olfactometer following the method described by de Kogel et al. (de Kogel, W. J., Koschier, E. H. and Visser, J. H. Proc. Exper. & Appl. Entomol., N. E. V. Amsterdam, (1999) 10, 131-135.) and Koschler et al. (Koschier, E. H., De Kogel, W. J. and Visser, J. H. (2000) Journal of Chemical Ecology, 26, 2643-2655.). The Y-tube has two branching arms at an angle of 45° leading into a single tube, all 60 mm long, with an internal diameter of 5 mm. The arms of the Y-tube were connected to glass Wheaton Micro Kit® adapters that were in turn attached to 4 ml glass vials each containing a 1 cm^2 piece of filter paper (Whatman No. 1). The Y-tube and Wheaton apparatus were placed in a grey-box (to prevent external stimuli influencing thrips' behaviour), located in a darkened, air-conditioned room (22±3° C.). The Y-tube was placed at an inclining position of 25° between the Y-tube and horizontal plane and illuminated from above by a halogen lamp (780 lux). One microliter of the volatile compounds, either undiluted or diluted in hexane (95%, Pronalys AR), was applied to filter paper in one vial, while 1 μl of hexane was applied to filter paper held in the second vial. Air was drawn through activated charcoal before entering the Wheaton apparatus and Y-tube using a suction pump (AR Harris Co. Ltd, Christchurch) producing an airflow of 5 cm/s through each arm and 10 cm/s at the base of the Y-tube. Air was drawn through for 30 min before introducing the first thrips. Connections between the activated charcoal, Wheaton apparatus, Y-tube and suction pump consisted of silicone tubing.
An individual female Frankliniella occidentalis thrips of unknown age, that had been starved overnight, was released into the Y-tube using a small aspirator. The aspirator was made by placing a 1 ml pipette tip over the end of silicone tubing (5 mm diameter) the end of which was covered with fine mesh; the pipette tip was cut so it projected 5 mm beyond the end of the silicone tubing. A thrips was sucked up into the pipette tip, which was then placed at the base of the Y-tube. Most thrips walked up into the Y-tube within a few seconds, at which time the silicone air suction tubing was reconnected to the glass Y. The choice between clean or odour laden airflow was recorded when the thrips reached the far end of one arm and only those thrips that made the choice within 3 min were recorded. After every 5 thrips the Y-tube and Wheaton apparatus were rotated […] to avoid position effects. After 25 choices were recorded, the Y-tube and Wheaton apparatus were thoroughly cleaned with acetone (99.5%, BDH) and allowed to dry before repeating the experiment. Each compound and dilution was replicated 3 times.

[2] = tested on: Frankliniella occidentalis; experiment: Greenhouse trials with water traps or yellow sticky traps; type: in vivo; conditions: 24 h, capsicum greenhouse, t-value in brackets in same cell
Text: Greenhouse trials were undertaken using water traps similar to those used in the field trials (Example 2), or yellow sticky traps (Veg-Gro Supplies Ltd, Auckland) to examine the response of thrips to volatile compounds. The greenhouse, located in Auckland, is ≈88×200 m, constructed of glass, and is used to grow capsicum (Capsicum annuum var. Special, Fiesta, Boogie and Stirit). Water traps were placed 20 to 24 m apart within a row and 24 m apart between rows. There were 6 baited water traps for each compound tested and 6 water-only traps randomly positioned in a 6×2 grid in the greenhouse. Traps were positioned just above the crop canopy. Water traps (2 L containers, 16×16×8.5 cm) were assembled as described in Example 2 and left in the greenhouse for 24 h, after which time the containers were sealed for transport to a laboratory. Insects from each water trap were transferred to 5 ml glass tubes containing 75% ethanol within 24 h of collecting them from the greenhouse. Catches from each treatment were analysed under a stereomicroscope (100×) and the proportion of Frankliniella occidentalis was determined.
Yellow sticky traps (24.4×20 cm) were treated with a compound or water using a 30 ml spray mist dripulator (Arthur Holmes, Wellington) held 10 cm away from the sticky trap. Four sprays were applied to each side, coating the sticky trap in approximately 1 ml of water or compound. Sticky traps sprayed with the same treatment were separated using black metal foldback clips (19 mm, Celco), suspended within a cardboard box (29.5×22.3×30.2 cm), which was in turn sealed within a plastic bag for transport to the greenhouse. Traps were suspended in the greenhouse just above the crop canopy within 3 h after spraying, using the same layout as for the water traps (20 to 24 m apart within a row, 24 m between rows, in a 6×2 grid). After 24 h the traps were collected by wrapping each trap in plastic wrap for transport to the laboratory. The total number of thrips on the traps were counted using 10× magnification. Thrips were removed from the sticky traps using De-Solv-it® and Johnsons baby oil®. A subsample from each treatment was further analysed under a stereomicroscope (100×) and the proportion of Frankliniella occidentalis was determined.

[3] = tested on: Thrips obscuratus; conditions: Penman et al. 1982; cited from earlier work
[4] = tested on: Frankliniella occidentalis; conditions: literature; anisaldehyde with blue sticky or yellow water traps; WO 03/055309 Y-tube; cited from earlier work
[5] = tested on: Thrips tabaci; conditions: cited from earlier work
[6] = tested on: Thrips obscuratus; experiment: Field trials with baited water traps; type: in vivo; conditions: female Thrips obscuratus; field water traps, 1 ml compound, 24 or 48 h; * = P < 0.05 vs control trap; brackets = backtransformed 95% CI
Text: (§1) Water traps were placed out into a field comprising several species of grasses, white clover (Trifolium repens L.) and several weed species (≈100 mm in height). Grass and cereal fields surrounded the field trial area on three sides and poplar (Poplar nigra L.) trees on the other, on the Canterbury Agricultural Research Centre campus. Each field trial consisted of five replicates of five treatments including a water control, positive control compound (ethyl nicotinate, ethyl isonicotinate, or benzaldehyde, Table 1) and three test compounds set out in the field in a grid (10×10 m) using a Latin square design with the trial area at least 100 m from the field boundary/shelter belt. White plastic containers (2 L capacity, 16×16×8.5 cm) containing approximately 1.7 L water, 0.4 ml of formalin (to prevent fungal growth) and 0.08 ml tween were placed above the crop canopy on inverted white (2 L capacity, 16×16×8.5 cm) or black plastic containers (24 cm diameter, 13 cm tall). For each treatment, 1 ml of a compound or water was added to a glass vial (12×32 mm screw thread vial) containing a 4.5 cm^2 piece of rolled filter paper (Whatman No. 1) that projected 1 cm above the top of the vial, creating a wick. The glass vial was suspended above the water in the centre of the trap using wire (0.5 mm diameter). The vials were removed after 24 or 48 h and the containers were sealed for transport to a laboratory. The contents from a water trap were poured through a sieve (250 μm mesh) and all insects were washed into a 50 ml Schott bottle within 24 h of collecting them from the field. All thrips were pipetted from each water trap sample and counted. Thrips were mounted on to slides using polyvinyl alcohol glue (1 part polyvinyl alchol: 4 parts water, 1 part lactic acid: 1.25 parts phenyl) from each trap using the following subsample method: less than 50 thrips, all thrips were mounted on to a slide; 50 to 100 thrips, a subsample of 25 thrips were mounted on to a slide; more than 100 thrips, a subsample of 50 thrips were mounted on to a slide. The slides were examined under 100× magnification using a compound microscope to identify thrips species. Subsampled thrips were sexed and identified to species according to Mound and Walker (Mound, L. A. and Walker, A. K. 1982. Terebrantia (Insecta: Thysanoptera). Fauna of New Zealand No. 1.). The mean number of each species for each treatment was calculated by multiplying the proportion of each species within a subsample with the total number of thrips counted in each water trap.

[7] = tested on: Thrips tabaci; experiment: Field trials with baited water traps; type: in vivo; conditions: field trials (Table 1)
Text: as §1

[8] = tested on: Thrips hawaiiensis; conditions: field trials; cited from earlier work
[9] = tested on: Thrips coloratus; conditions: field trials; cited from earlier work
[10] = tested on: Thrips flavus; conditions: cited from earlier work
[11] = Yellow sticky trap, about 1 ml sprayed, >95% of thrips caught were Frankliniella occidentalis

Row | Structure (SMILES) | MAC (%) = Minimum Active Concentration to elicit a response from thrips (P < 0.05) [1] | % Response: percentage of thrips to walk up odour-laden arm [1] | Average ratio of thrips caught relative to water treated traps ([2]; Water trap, around 66% of thrips caught were Frankliniella occidentalis) | Average ratio of thrips caught relative to water treated traps [2, 11] | Attractancy to Thrips obscuratus (literature) [3] | Attractancy to Frankliniella occidentalis (literature) [4] | Attractancy to Thrips tabaci (literature) [5] | Average ratio of female thrips caught relative to water traps (95% CI) [6] | Attractancy to Thrips tabaci (in words) [7] | Attractancy to Thrips hawaiiensis (literature) [8] | Attractancy to Thrips coloratus (literature) [9] | Attractancy to Thrips flavus (literature) [10]
1 | CCOC(=O)c1cccnc1 [Ethyl nicotinate, reference compound] | 0.01% | 60.0 (0.043) % | 1 (0.1) | 1.1 (0.4) | potent attractant | less attractive | varied in its attractiveness |  |  |  |  | 
2 | CC(=O)c1ccncc1 [Methyl 4-pyridyl ketone] | 0.001% | 77.3 (<0.001) % |  | 3.1 (6.6) |  |  |  | 0 (0.0, >1000) | attractants |  |  | 
3 | CCOC(=O)c1ccccc1N [ethyl anthranilate] |  |  |  |  |  |  |  |  |  | attractant | attractant | attractant
4 | COC(=O)c1ccccc1N [methyl anthranilate] |  |  |  |  |  |  | not for Thrips tabaci |  |  | attractant | attractant | 
